Laboratory results as given in patent US9144229B2, “Tissue specific expression of antibodies in chickens” (Synageva BioPharma Corp., priority 2002, dated 2015).

Tested on: chicken embryonic stem cells
Experiment: Titration kill curve of chicken ES cells under puromycin or neomycin selection
Assay type: cell-based
Design: key to Morphology of cES cells: ES cells are present.; ES cells are differentiated.; gone: no morphologically recognizable cells are present
Protocol: In a preferred embodiment, the concentration of puromycin required for selecting transfected cells is calculated as a titration kill curve. Titration kill curves for chicken embryonic stem cells are established by exposing cells in culture to puromycin concentrations varying from 0.0 to 1.0 μg/ml for 10 days (Table 7) and neomycin concentrations varying from 0.0 to 200 μg/ml (Table 8). The medium is changed every 2 days and fresh puromycin or neomycin is added. […] Puromycin concentrations of 0.3-1.0 μg/ml are used for selection of the transfected cultures. Neomycin concentrations over 40 μg/ml eliminated all cES cells within 7 days (Table 8).

neomycin
gone: Morphology of cES cells (neomycin 40 μg/ml, day 8) | Morphology of cES cells (neomycin 40 μg/ml, day 9) | Morphology of cES cells (neomycin 40 μg/ml, day 10) | Morphology of cES cells (neomycin 50 μg/ml, day 8) | Morphology of cES cells (neomycin 50 μg/ml, day 9) | Morphology of cES cells (neomycin 50 μg/ml, day 10) | Morphology of cES cells (neomycin 60 μg/ml, day 4) | Morphology of cES cells (neomycin 60 μg/ml, day 5) | Morphology of cES cells (neomycin 60 μg/ml, day 6) | Morphology of cES cells (neomycin 60 μg/ml, day 7) | Morphology of cES cells (neomycin 60 μg/ml, day 8) | Morphology of cES cells (neomycin 60 μg/ml, day 9) | Morphology of cES cells (neomycin 60 μg/ml, day 10) | Morphology of cES cells (neomycin 100 μg/ml, day 4) | Morphology of cES cells (neomycin 100 μg/ml, day 5) | Morphology of cES cells (neomycin 100 μg/ml, day 6) | Morphology of cES cells (neomycin 100 μg/ml, day 7) | Morphology of cES cells (neomycin 100 μg/ml, day 8) | Morphology of cES cells (neomycin 100 μg/ml, day 9) | Morphology of cES cells (neomycin 100 μg/ml, day 10) | Morphology of cES cells (neomycin 150 μg/ml, day 4) | Morphology of cES cells (neomycin 150 μg/ml, day 5) | Morphology of cES cells (neomycin 150 μg/ml, day 6) | Morphology of cES cells (neomycin 150 μg/ml, day 7) | Morphology of cES cells (neomycin 150 μg/ml, day 8) | Morphology of cES cells (neomycin 150 μg/ml, day 9) | Morphology of cES cells (neomycin 150 μg/ml, day 10) | Morphology of cES cells (neomycin 200 μg/ml, day 3) | Morphology of cES cells (neomycin 200 μg/ml, day 4) | Morphology of cES cells (neomycin 200 μg/ml, day 5) | Morphology of cES cells (neomycin 200 μg/ml, day 6) | Morphology of cES cells (neomycin 200 μg/ml, day 7) | Morphology of cES cells (neomycin 200 μg/ml, day 8) | Morphology of cES cells (neomycin 200 μg/ml, day 9) | Morphology of cES cells (neomycin 200 μg/ml, day 10)
ES/diff: Morphology of cES cells (neomycin 30 μg/ml, day 8)
ES: Morphology of cES cells (neomycin 10 μg/ml, day 1) | Morphology of cES cells (neomycin 10 μg/ml, day 2) | Morphology of cES cells (neomycin 10 μg/ml, day 3) | Morphology of cES cells (neomycin 10 μg/ml, day 4) | Morphology of cES cells (neomycin 10 μg/ml, day 5) | Morphology of cES cells (neomycin 10 μg/ml, day 6) | Morphology of cES cells (neomycin 10 μg/ml, day 7) | Morphology of cES cells (neomycin 10 μg/ml, day 8) | Morphology of cES cells (neomycin 10 μg/ml, day 9) | Morphology of cES cells (neomycin 10 μg/ml, day 10) | Morphology of cES cells (neomycin 20 μg/ml, day 1) | Morphology of cES cells (neomycin 20 μg/ml, day 2) | Morphology of cES cells (neomycin 20 μg/ml, day 3) | Morphology of cES cells (neomycin 20 μg/ml, day 4) | Morphology of cES cells (neomycin 20 μg/ml, day 5) | Morphology of cES cells (neomycin 20 μg/ml, day 6) | Morphology of cES cells (neomycin 20 μg/ml, day 7) | Morphology of cES cells (neomycin 20 μg/ml, day 8) | Morphology of cES cells (neomycin 20 μg/ml, day 9) | Morphology of cES cells (neomycin 20 μg/ml, day 10) | Morphology of cES cells (neomycin 30 μg/ml, day 1) | Morphology of cES cells (neomycin 30 μg/ml, day 2) | Morphology of cES cells (neomycin 30 μg/ml, day 3) | Morphology of cES cells (neomycin 30 μg/ml, day 4) | Morphology of cES cells (neomycin 30 μg/ml, day 5) | Morphology of cES cells (neomycin 30 μg/ml, day 6) | Morphology of cES cells (neomycin 40 μg/ml, day 1) | Morphology of cES cells (neomycin 40 μg/ml, day 2) | Morphology of cES cells (neomycin 40 μg/ml, day 3) | Morphology of cES cells (neomycin 40 μg/ml, day 4) | Morphology of cES cells (neomycin 50 μg/ml, day 1) | Morphology of cES cells (neomycin 50 μg/ml, day 2) | Morphology of cES cells (neomycin 50 μg/ml, day 3) | Morphology of cES cells (neomycin 60 μg/ml, day 1) | Morphology of cES cells (neomycin 60 μg/ml, day 2) | Morphology of cES cells (neomycin 60 μg/ml, day 3)
Diff/: Morphology of cES cells (neomycin 30 μg/ml, day 10) | Morphology of cES cells (neomycin 40 μg/ml, day 6) | Morphology of cES cells (neomycin 50 μg/ml, day 6)
Dead/: Morphology of cES cells (neomycin 50 μg/ml, day 7)
Diff: Morphology of cES cells (neomycin 30 μg/ml, day 9) | Morphology of cES cells (neomycin 100 μg/ml, day 2)
over 40 μg/ml: concentration that eliminated all cES cells (neomycin, within 7 days)
dead: Morphology of cES cells (neomycin 40 μg/ml, day 7) | Morphology of cES cells (neomycin 100 μg/ml, day 3) | Morphology of cES cells (neomycin 150 μg/ml, day 2) | Morphology of cES cells (neomycin 150 μg/ml, day 3) | Morphology of cES cells (neomycin 200 μg/ml, day 2)
ES/Diff: Morphology of cES cells (neomycin 30 μg/ml, day 7) | Morphology of cES cells (neomycin 40 μg/ml, day 5) | Morphology of cES cells (neomycin 50 μg/ml, day 4) | Morphology of cES cells (neomycin 50 μg/ml, day 5) | Morphology of cES cells (neomycin 100 μg/ml, day 1)
